Data set [1] deals with Acinetobacter baumannii ATCC 19606. Description: MIC, microbroth dilution, standard strains. In kind it is cell-based. As for the experimental part:
(§1) The minimum inhibitory concentration (MIC) of the pleuromutilin derivative containing thiazole-pyridine benzyl quaternary ammonium salt side chain was tested with moxifloxacin as a positive control (purchased from Shanghai Macklin Biochemical Technology Co., Ltd.) using a microbroth dilution method.
(§2) Standard strains include gram-positive bacteria: Staphylococcus epidermidis ATCC 12228, Staphylococcus aureus ATCC 29213, ATCC 25923 and methicillin-resistant Staphylococcus aureus ATCC 33591; gram-negative bacteria: Salmonella ATCC 14028, Acinetobacter baumannii ATCC 19606, Escherichia coli ATCC 25922 and CMCC 44103, all the strains were purchased from the American Type Culture Collection.

In data set [2] the test system is Escherichia coli ATCC 25922. Description: MIC, microbroth dilution, standard strains. The data set is classed as cell-based. The procedure:
as §1, §2

The subject of data set [3] is Escherichia coli CMCC 44103. Nature of the data set: MIC, microbroth dilution, standard strains. In kind it is cell-based. The procedure: as §1, §2
For data set [4], the system named is Salmonella ATCC 14028. Nature of the data set: MIC, microbroth dilution, standard strains. The data set is classed as cell-based. As for the experimental part:
as §1, §2

In data set [5] the test system is Staphylococcus aureus ATCC 25923. Nature of the data set: MIC, microbroth dilution, standard strains. The data set is classed as cell-based. As for the experimental part:
as §1, §2

For data set [6], the system named is Staphylococcus aureus ATCC 29213. Description: MIC, microbroth dilution, standard strains. In kind it is cell-based. The procedure: as §1, §2
For data set [7], the system named is Staphylococcus epidermidis ATCC 12228. Description: MIC, microbroth dilution, standard strains. The data set is classed as cell-based. The procedure: as §1, §2
The subject of data set [8] is methicillin-resistant Staphylococcus aureus ATCC 33591. Nature of the data set: MIC, microbroth dilution, standard strains. In kind it is cell-based. As for the experimental part: as §1, §2
A short description of data set [9]: physchem. The note with it: thermodynamic from solid. As for the experimental part: Experimental method: representative compounds 2, 4 and 7 were selected for solubility determination, and retapamulin hydrochloride was used as a control. 1 mg of each sample was taken and quantitatively dissolved in a 10 mL volumetric flask, and the absorption peak area was measured by a high-performance liquid chromatography; then, the saturated solutions of the representative compounds 2, 4 and 7 and the control drug retapamulin were diluted 10-fold, and the absorption peak area was determined by HPLC; their respective solubility was obtained by calculating the absorption peak area.
The experimental instrument was Shimadzu LC-16, the chromatographic column was Hypersil C18 ODS (4.6×250 mm×5 μm), the flow rate was 1.0 mL/min, the detection wavelength was 300 nm, and the mobile phase was 0.05 mol/L of aqueous acetic acid solution:acetonitrile=30:70.

Converted amounts (≈) assume the structure as drawn. Counter-ions that a name gives are not always drawn. Like-named read-outs stand apart in the source and are kept apart here.

Regarding `C=C[C@]1(C)C[C@@H](OC(=O)CSc2nc(-c3cc[n+](Cc4cc(F)cc(F)c4)cc3)cs2)[C@]2(C)[C@H](C)CC[C@]3(CCC(=O)[C@H]32)[C@@H](C)[C@@H]1O` [Compound 15, 1-(3,5-difluorobenzyl)-4-(2-(8-hydroxy-4,7,9,12-tetramethyl-3-oxo-7-vinyldecahydro-4,9a-propancyclopent[8]cyclen-5-yl)oxy)-2-oxoethyl)thiazol-4-yl)pyridyl bromide salt], the MIC was determined as 8 µg/mL in data set [1] (ATCC19606, ATCC 19606, read-out: Minimum inhibitory concentration); 16 µg/mL in [2] (ATCC25922, ATCC 25922, read-out: Minimum inhibitory concentration); 32 µg/mL in data set [3] (CMCC44103, CMCC 44103, read-out: Minimum inhibitory concentration); 16 µg/mL in data set [4] (ATCC14028, ATCC 14028, read-out: Minimum inhibitory concentration); 128 µg/mL in [5] (ATCC25923, ATCC 25923, read-out: Minimum inhibitory concentration); 64 µg/mL in data set [6] (ATCC29213, ATCC 29213, read-out: Minimum inhibitory concentration). The MIC in [7] (ATCC12228, ATCC 12228, read-out: Minimum inhibitory concentration) worked out at 32 µg/mL; in data set [8] (ATCC33591, ATCC 33591, read-out: Minimum inhibitory concentration) it was 64 µg/mL.
Regarding `C=C[C@]1(C)C[C@@H](OC(=O)CS[C@@H]2C[C@H]3CC[C@@H](C2)N3C)[C@]2(C)[C@H](C)CC[C@]3(CCC(=O)[C@H]32)[C@@H](C)[C@@H]1O` [Retapamulin hydrochloride, retapamulin hydrochloride, reference compound], the solubility in [9] (organic solvent or mixture) was 1150 µg/mL; in [9] (pH 1.5, simulated gastric fluid), 230 µg/mL; in data set [9] (pH 7, water) it was 120 µg/mL.
Consider `C=C[C@]1(C)C[C@@H](OC(=O)CSC(C)(C)CNC(=O)[C@H](N)C(C)C)[C@]2(C)[C@H](C)CC[C@]3(CCC(=O)[C@H]32)[C@@H](C)[C@@H]1O` [Valnemulin, valnemulin, reference compound], for which the MIC was 2 µg/mL (≈ 3.54 µM) in [1] (ATCC19606, read-out: Minimum inhibitory concentration); 16 µg/mL (≈ 28.3 µM) in [2] (ATCC25922, read-out: Minimum inhibitory concentration); 64 µg/mL (≈ 113 µM) in data set [3] (CMCC44103, read-out: Minimum inhibitory concentration); 64 µg/mL (≈ 113 µM) in [4] (ATCC14028, read-out: Minimum inhibitory concentration); 4 µg/mL (≈ 7.08 µM) in data set [5] (ATCC25923, read-out: Minimum inhibitory concentration); 2 µg/mL (≈ 3.54 µM) in data set [6] (ATCC29213, read-out: Minimum inhibitory concentration). The MIC in [7] (ATCC12228, read-out: Minimum inhibitory concentration) was 64 µg/mL (≈ 113 µM); in data set [8] (ATCC33591, read-out: Minimum inhibitory concentration), over 128 µg/mL.

These data come from patent US12384771B2, “Pleuromutilin derivative containing thiazole-pyridine benzyl quaternary ammonium salt side chain and preparation method and use thereof” (SHAANXI UNIVERSITY OF SCIENCE AND TECHNOLOGY, priority 2022, dated 2025).
